In brackets after ≈: the same amount, converted by molar mass. Read-outs that look alike come from different tables or passages of the source.
How the values were obtained:
C. neoformans isolates [1] = assay: MIC determination, CLSI methodology; format: cell-based, Cryptococcus neoformans; conditions: 50 strains
Procedure: (§1) The initial in vitro susceptibility testing was performed with H99 (ATCC 208821). An additional 49 clinical isolates were obtained from the National Centre for Microbiology Instituto de Salud Carlos III, Madrid, Spain (courtesy of Ana Alastruey-Izquierdo and Manual Cuenca-Estrella). These isolates were identified to the species level using standard microbiological techniques.
(§2) The MIC of flubendazole against H99 (ATCC 208821) and the 49 isolates was estimated using methodology of the European Committee on Antimicrobial Susceptibility Testing (EUCAST [25]) and the Clinical and Laboratory Standards Institute (CLSI [26]). The endpoint for MIC determination using was 50% for both the EUCAST and CLSI methods. MICs were performed in triplicate.

[2] = rats, 5, 15, 30 mg/kg/day (male), 2.5, 5, 10 mg/kg/day (female), 2 weeks; ref Janssen GLP toxicology studies; cited from earlier work
[3] = dogs, 20, 40, 100 mg/kg/day, 2 weeks; ref Janssen GLP toxicology studies; cited from earlier work
C. neoformans isolates [4] = assay: MIC determination, EUCAST methodology; format: cell-based, Cryptococcus neoformans; conditions: for MIC: Cryptococcus neoformans
Procedure: as §1, §2

Cryptococcus neoformans [5] = format: in vivo, mice
[6] = In vitro DMPK: aqueous solubility; format: physicochemical
[7] = set-up: method as in PMID 26443851; conditions: cited from earlier work
porcine tubulin = target: T1, porcine tubulin (Sus scrofa, UniProt P02554); assay: Porcine tubulin polymerization assay; format: biochemical; conditions: 37°C, 1 h, read-out: IC50 against porcine tubulin
T1 construct: purified porcine brain tubulin; purchased Cytoskeleton, Inc., Denver, CO BK011P; host or cells: porcine brain (tissue-purified)
T1 sequence (P02554 whole entry): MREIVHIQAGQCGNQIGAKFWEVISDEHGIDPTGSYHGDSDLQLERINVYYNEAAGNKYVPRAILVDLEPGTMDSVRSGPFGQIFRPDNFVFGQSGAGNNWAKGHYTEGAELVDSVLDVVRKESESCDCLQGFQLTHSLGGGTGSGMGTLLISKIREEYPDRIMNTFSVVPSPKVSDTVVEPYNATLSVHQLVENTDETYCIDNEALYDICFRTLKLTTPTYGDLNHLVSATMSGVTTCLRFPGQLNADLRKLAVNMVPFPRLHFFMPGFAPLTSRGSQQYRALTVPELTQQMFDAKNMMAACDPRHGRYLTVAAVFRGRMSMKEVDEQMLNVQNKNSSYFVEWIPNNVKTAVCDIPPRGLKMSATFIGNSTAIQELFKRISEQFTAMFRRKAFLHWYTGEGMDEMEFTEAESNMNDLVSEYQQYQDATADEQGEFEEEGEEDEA
T1 sequence (P02550 whole entry partner): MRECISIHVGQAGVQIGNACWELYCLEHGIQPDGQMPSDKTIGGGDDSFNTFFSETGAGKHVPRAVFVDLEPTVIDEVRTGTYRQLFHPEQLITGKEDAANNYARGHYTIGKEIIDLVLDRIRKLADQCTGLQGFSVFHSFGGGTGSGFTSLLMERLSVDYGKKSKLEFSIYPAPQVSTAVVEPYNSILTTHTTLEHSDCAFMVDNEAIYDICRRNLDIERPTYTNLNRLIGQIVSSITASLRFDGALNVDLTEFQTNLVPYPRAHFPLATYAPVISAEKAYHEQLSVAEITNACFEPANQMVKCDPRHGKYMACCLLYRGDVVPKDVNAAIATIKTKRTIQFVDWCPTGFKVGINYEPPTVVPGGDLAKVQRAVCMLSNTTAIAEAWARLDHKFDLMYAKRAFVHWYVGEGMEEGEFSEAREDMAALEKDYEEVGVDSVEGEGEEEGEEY
Procedure: Porcine tubulin is generally used as a surrogate for human tubulin because of its high degree of homology (95%) ([27]). […] The commercially available porcine tubulin assay (BK011P; Cytoskeleton, Inc., Denver, CO) quantifies the time-dependent polymerization of tubulin to microtubules and thus the ability of tubulin inhibitors to disrupt this process.
The porcine tubulin assay was performed according to the manufacturer's instructions. Briefly, the 96-well assay plate was prewarmed to 37°C prior to use. Five microliters of test compound(s) and controls at 0, 1.25, 2.5, 5, and 10 μM were aliquoted into each well and prewarmed for 1 min. […] Polymerization was initiated by mixing 45 μl of reaction buffer that contained 2 mg/ml of purified porcine brain tubulin, 10 μM fluorescent reporter, PEM buffer (80 mM PIPES, 0.5 mM EGTA, 2 mM MgCl2 [pH 6.9]), 1 mM GTP, and 20.3% glycerol. Tubulin polymerization was followed by an increase in fluorescence intensity due to the incorporation of a fluorescence reporter into microtubules as polymerization occurred. The change in fluorescence was measured using an excitation and emission wavelength of 360 nm and 450 nm, respectively, every 1 min for 1 h at 37°C using a Varioskan multimode plate reader (Thermo scientific Inc.). All data points were acquired in triplicate, and IC50s were calculated with GraphPad Prism. […]

Cryptococcus neoformans [8] = assay: Pharmacodynamics in rabbit model of cryptococcal meningitis; format: in vivo; conditions: rabbits; for antifungal effect: CSF
Procedure: A previously described and well-characterized rabbit model of cryptococcal meningoencephalitis ([32]) was used to further investigate the pharmacodynamics of flubendazole. Male New Zealand White rabbits were purchased from Harlan. Rabbits weighed 2.5 to 3 kg at the time of experimentation. Rabbits were immunosuppressed intramuscularly with hydrocortisone at 10 mg/kg on day −1 relative to infection and then daily throughout the experiment.
Cryptococcal meningoencephalitis was induced with the intracisternal inoculation of 0.25 ml of a suspension containing 3.8 × 10^8 CFU/ml under general anesthesia (induced with medetomidine and ketamine). This inoculum results in progressive infection that manifests as an increase in fungal burden in the CSF and reproducible encephalitis. There was minimal clinical disease with no demonstrable neurological signs in the experimental period. Mortality always occurred in the context of cisternal tapping and repeated anesthesia rather than from progressive infection.
We directly linked plasma concentrations with the antifungal effect.

In vitro DMPK: logD7.4 = format: physicochemical; conditions: pH 7.4; commercially available powder

With `COC(=O)Nc1nc2cc(C(=O)c3ccc(F)cc3)ccc2[nH]1` [flubendazole] the “No. of isolates with MIC (mg/liter) of: 0.03” value (C. neoformans isolates [1]) was 2, the “No. of isolates with MIC (mg/liter) of: 0.06” value (C. neoformans isolates [1]) was 40 and the “No. of isolates with MIC (mg/liter) of: 0.125” value (C. neoformans isolates [1]) was 8. The “No. of isolates with MIC (mg/liter) of: 0.25” value (C. neoformans isolates [1]) was 0, the “No. of isolates with MIC (mg/liter) of: 0.5” value (C. neoformans isolates [1]) was 0 and the toxicity findings [2] was “evidence of toxicity related to the pharmacological activity of flubendazole in the gastrointestinal tract, lymphoid system, and bone marrow, as well as testicular toxicity”. For the same compound, the liver toxicity [3] was “liver toxicity was also observed”, the toxicity findings [3] was “evidence of toxicity related to the pharmacological activity of flubendazole in the gastrointestinal tract, lymphoid system, and bone marrow, as well as testicular toxicity” and the MIC (C. neoformans isolates [4]; EUCAST methodology, read-out: modal MIC) was 0.125 µg/mL (≈ 0.399 µM). For the same compound, the MIC (C. neoformans isolates [4]; range over isolates, Table 1, comparable with EUCAST and CLSI, read-out: MICs) was 0.06 to 0.25 µg/mL (≈ 0.192 to 0.798 µM), the “No. of isolates with MIC (mg/liter) of: 0.03” value (C. neoformans isolates [4]; EUCAST, 50 strains) was 1 and the “No. of isolates with MIC (mg/liter) of: 0.06” value (C. neoformans isolates [4]; EUCAST, 50 strains) was 19. For the same compound, the “No. of isolates with MIC (mg/liter) of: 0.125” value (C. neoformans isolates [4]; EUCAST, 50 strains) was 25, the “No. of isolates with MIC (mg/liter) of: 0.25” value (C. neoformans isolates [4]; EUCAST, 50 strains) was 5 and the “No. of isolates with MIC (mg/liter) of: 0.5” value (C. neoformans isolates [4]; EUCAST, 50 strains) was 0. For the same compound, the “antifungal effect, orally administered pure compound” value (Cryptococcus neoformans [5]; mice, oral, water, polysorbate 80/PBS, DMSO, PEG400 or cyclodextrin vehicles, data not shown) was “no demonstrable antifungal effect”, the “flubendazole concentrations in plasma and cerebrum” value (Cryptococcus neoformans [5]; mouse, in vivo) was “quantifiable in plasma and the cerebrum” and the solubility [6] was 0.8 µM (≈ 0.251 µg/mL). For the same compound, the aneugenicity [7] was “aneugenic”, the clastogenicity [7] was “clastogenic” and the embryotoxicity [7] was “embryotoxic”. The IC50 (porcine tubulin) was 2380 nM, the antifungal effect (Cryptococcus neoformans [8]; 6 mg/kg/day orally) was “no demonstrable antifungal effect” and the antifungal effect (Cryptococcus neoformans [8]; 22.5 mg/kg q24h orally, few animals) was “the effect was small”. The “fungal burden in the cerebrum at the end of the experiment vs other groups” value (Cryptococcus neoformans [8]; 6 and 22.5 mg/kg q24h, 288 h postinoculation, P = 0.464) was “no difference in the fungal burden” and the logD (In vitro DMPK: logD7.4) was 2.9.

— PMC5913986, “Repurposing and Reformulation of the Antiparasitic Agent Flubendazole for Treatment of Cryptococcal Meningoencephalitis, a Neglected Fungal Disease” (Antimicrobial Agents and Chemotherapy, 2018)
